Our source for the melting point values is a melting point compilation (Tetko et al.; mined from patent text by program, amines drawn as free bases though some values may be those of a salt).

Some results are limits rather than exact numbers.

For `COc1cc(COc2nn(-c3ccccc3)cc2/C=C/c2csc(C)n2)ccc1OCc1nc(-c2ccc(CC(=O)O)cc2)oc1C`, the melting point fell in the range of 181 to 182 °C. In the case of `O=[N+]([O-])c1cccc(COc2cccc3cccnc23)c1` it was 98 to 99 °C; in that of `CC(=O)Nc1cc(Cc2ccc3c(C(=O)Nc4ccc(CN5CCN(C)CC5)c(C(F)(F)F)c4)cccc3c2)ncn1`, 202 to 204 °C.

Take `CC(C)(C#N)c1c(Cl)cc(-n2ncc(=O)[nH]c2=O)cc1Cl`: the melting point is 180 °C.

As to `CCN1c2ccccc2C=C(Br)c2ccccc21`, the melting point turned out to be 148 °C. Take `Cc1cnc2c(c1)CCCC2NC(=S)NC(=O)c1ccccc1` (configuration not stated): the melting point was found to be 168 °C. In the case of `N#Cc1ccc2[nH]cc(C3CCC(=O)C3)c2c1` (configuration not stated), the melting point was 136 to 138 °C. As for `Cc1cc(NC(=O)NC2=C(c3ccccc3)c3ccccc3CS2)cc(C)c1O`, the melting point is 227 to 228 °C. `C=Cc1cn(-c2c(Cl)cc(C(F)(F)F)cc2Cl)nn1`: the melting point lay within 109 to 111 °C.

Compound `Cc1cccc(-c2ccccc2NC(=N)N2CCCCC2)c1` had a melting point of 131 °C. In turn, `CN(c1ccc(Br)cc1)S(=O)(=O)c1cccc(C(=O)Nc2ccc(F)cc2F)c1` had a melting point of 119 to 120 °C. As for `O=C1CCc2cc(N/C(=C3\C(=O)Nc4ccc([N+](=O)[O-])cc43)c3ccccc3)ccc2N1`, the melting point is > 300 °C. The figure for `Clc1cc(Nn2cccc2)ncn1` is 196 to 198 °C.

Consider `O=C(O)CCC(Cc1ccccc1Cl)(C(=O)C=Cc1ccc(Cl)cc1)c1ccccc1` (configuration not stated), for which the melting point lay in the range of 184 to 187 °C. For `CC(C)c1ccc2c(CCCCN(C)S(=O)(=O)c3ccccc3)cc(C(=O)O)c-2cc1`, the melting point lay in the range of 153 to 155 °C. `CC(=O)N1C(=O)N(COCc2ccccc2)C(=O)C12c1ccccc1NC(=O)N2C` (configuration not stated) had a melting point of 209 to 211 °C. In turn, `CCNC(=S)NS(=O)(=O)c1cc(CCNC(=O)C=Cc2ccc(OC)cc2OC)ccc1OCCOC` gave a melting point of 146 to 148 °C. In the case of `O=C(O)c1cccc(C(=O)c2ccc(Cl)cc2)c1` it was 228 °C; in that of `CCc1nc2ccccc2c(N)c1C(C)=O`, 145 to 148 °C.

`O=C(O)c1cccc2nc3cc(Br)ccc3nc12` yielded a melting point of 268 to 269 °C.

Compound `O=CNCC(=O)c1ccc(Cl)s1` showed a melting point of 111 to 113 °C. Compound `Cc1nc(-c2cccc(CNc3ccccc3)c2)no1` yielded a melting point of 75 to 76 °C. `COc1cc(CCCCC2OC(=O)NC2=O)ccc1OCc1nc(-c2ccccc2)oc1C` (configuration not stated) yielded a melting point of 135 to 136 °C.

For the compound `C[Si](C)(C)C#Cc1ccc(C=Cc2ccc(C#C[Si](C)(C)C)cc2)cc1`, the melting point lay in the range of 207 to 208 °C. `CCOC(=O)C(=NOC)c1nnc(C)s1` yielded a melting point of 79 to 81 °C. In the case of `CCCOc1c(C(=O)OCC)oc2ccc([N+](=O)[O-])cc12` it was 107 °C; in that of `Cn1cc(-c2cnccn2)cc(Cl)c1=O`, 197 to 198 °C; in that of `Cc1ccc(C(=O)Nc2ccc(C(=O)N3Cc4ccccc4Cc4ccccc43)cc2)c(C)c1`, 197 to 199 °C.

`CC(C)C1CC(=O)C(c2ccccn2)C(=O)C1` (configuration not stated) came in with a melting point of 110 to 112 °C. `O=[N+]([O-])c1ccc(S(=O)(=O)NCC2CCN(C[C@H]3COc4ccc(Cl)cc4O3)CC2)cc1` showed a melting point of 147 to 148 °C. On to `CN(C)C(=O)CC1(O)C(=O)Nc2ccc(I)cc21` (configuration not stated), for which the melting point is 246 °C. Compound `Fc1ccc(Nc2ncnc3cnc(NC4CCCNC4)nc23)cc1Cl` (configuration not stated) registered a melting point of 194 to 199 °C.

As for `O=C(Cn1nc(-c2cc(Cl)ccc2O)nc1-c1cc(Cl)ccc1O)NCCN1CCOCC1`, the melting point lay within 224 to 226 °C. Consider `O=C(C=Cc1cnc2ccccc2c1)NCCCSc1ccncc1`, for which the melting point fell in the range of 154 to 155 °C. Regarding `c1ccc(-c2ncc(-c3nnn[nH]3)cn2)cc1`, the melting point amounted to 237 °C. In turn, `Cn1c(=O)n(CC(=O)OCCF)c(=O)n(-c2cc(Oc3ncc(C(F)(F)F)cc3Cl)ccc2Br)c1=O` showed a melting point of 93 to 95 °C. In the case of `O=C1c2ccccc2C(=O)N1CCCN1c2ccccc2C(c2ccccc2)=Nc2cccnc21` it was 170 to 172 °C; in that of `O=C(O)C=CC1=CCCC([N+](=O)[O-])C1` (configuration not stated), 158 to 160 °C.

Consider `O=c1c(N2CCCNCC2)nc2ccccc2n1-c1cccc(F)c1`, for which the melting point lay within 128 to 129 °C.

Take `CC1(C)C=Cc2cc(C(=O)NCCc3ccc(OCc4ccccc4)cc3)ccc2O1`: the melting point lay within 133 to 135 °C. In turn, `Nc1ccc(O)c(N)c1` registered a melting point of 78 °C. Compound `CCNc1nc(Cl)c(SC)c(Cl)n1` yielded a melting point of 147 °C. Regarding `CCOC(=O)CCCCCCCCCCNC(=O)CN(CCN(CCN(CC(=O)O)CC(=O)O)CC(=O)O)CC(=O)O`, the melting point is 155 to 157 °C. For the compound `C=CC(=O)OCCCC#Cc1ccc(C(F)(F)Oc2ccc(OC(F)(F)c3ccc(C#CCCCOC(=O)C=C)cc3)c(C)c2)cc1`, the melting point was found to be 51 °C.

On to `Cn1nc(O)ccc1=S`, for which the melting point is 203 °C. `NC(=O)C1(Nc2ccccc2)CCN([C@H]2CCc3ccccc32)CC1` gave a melting point of 194 to 195 °C. In the case of `O=C(Nc1cccc(-c2ccnc3c(C(=O)c4cccs4)cnn23)c1)OCc1cccnc1` it was > 200 °C; in that of `Cc1oc(-c2ccccc2)nc1COc1ccc2c(c1)CCC(CC1SC(=O)NC1=O)C2` (configuration not stated), 194 to 195 °C. In turn, `COC1(OC)C(=O)N(C)c2ccc(I)cc21` came in with a melting point of 101 to 103 °C. With `O=C1CCC2(c3c[nH]cn3)Cc3ccccc3C12` (configuration not stated), the melting point was 234 to 236 °C. In the case of `CC(CC(=O)Nc1c(Cl)ccc2nc(N3CCC(N)C3)ccc12)c1ccccc1` (configuration not stated) it was 204 to 207 °C. The compound `CC(C)c1cc(C(C)C)c(CC(=O)NS(=O)(=O)Oc2c(C(C)C)cc(C#N)cc2C(C)C)c(C(C)C)c1` gave a melting point of 79 to 84 °C. In the case of `Cn1nc(-c2cccnc2)c(C=Cc2ccccc2C(=O)O)c1Cl` it was 183 to 185 °C; in that of `CCN(CC)C(=O)n1cc(C=O)c(S(=O)(=O)c2cccc(Cl)c2C)n1`, 95 to 97 °C. The compound `Cc1c(OCC(F)(F)F)ccnc1CS(=O)c1nc2ccccc2n1S(=O)(=O)c1ccc(OCC(=O)Nc2ccccn2)cc1` (configuration not stated) returned a melting point of 78 to 81 °C. `Cc1cccc(-c2nc3ccc(Cl)nn3c2-c2ccnc(Nc3ccccc3C)c2)c1` came in with a melting point of 191 to 192 °C. Take `CCc1nc2c(N)nc3cccnc3c2n1CC1(O)CCN(S(C)(=O)=O)CC1`: the melting point was > 255 °C. `CCc1ccc(-c2ccc(C(=O)N[C@@H]3CCc4cccc(N5CCN(C)CC5)c4C3)cc2)cc1`: the melting point was in the range of 234 to 235 °C. The compound `CC(=O)Nc1c(F)cc(F)cc1SCC#N` came in with a melting point of 148 to 149 °C. With `CC(C)Cc1nc2c(C(F)(F)F)cccc2c(O)c1C(=O)O`, the melting point was 200 °C. The figure for `COc1ccc(C[C@H](NC(=O)OCc2ccccc2)C(=O)CCl)cc1` is 107 °C; for `N#Cc1ccc(CC(=O)Nc2cccc(C(=O)NCCC(=O)OCc3ccccc3)c2)cc1` it is 98 to 99 °C.

Usually melting point stands for the temperature of the solid-liquid transition.
